The values below come from patent US20210386835A1, “AN ANTIMICROBIAL COMPOSITION FOR SELECTIVELY INHIBITING GROWTH OF P. ACNES BACTERIA” (priority 2018, published 2021).

The test deals with P. acnes 6919 strain (ATCC, USA). Description: Contact kill assay against P. acnes (2 h exposure, colony count). It is filed as cell-based, Propionibacterium acnes. The conditions noted are these: 10 mM HEPES pH 7.0, 37° C., relative to control. How it is done: P. acnes 6919 strain (ATCC, USA) was grown under anaerobic conditions on RCM agar from Glycerol stocks. A loopful of culture from glycerol stock was streaked on freshly prepared RCM agar plate and incubated at 37° C. anaerobically for 4-5 days. After the incubation, the culture was taken from the plate and re-suspended in saline and then centrifuged at 8000 rpm for 6 minutes at 4° C. The pellet obtained was re-suspended in 10 mM HEPES buffer (pH 7.0). An OD600 culture of 0.5 was made in HEPES buffer. 1:10 dilution of 0.5 OD adjusted culture was used for contact kill assay corresponding to 10^6 cells per ml. […] The contact assay was performed in 10 mM HEPES buffer (pH 7.0). For control, 181 μl of 1:10 diluted […] adjusted culture was mixed with 19 μl of HEPES buffer to make a volume of 200 μl. […] The mixture was mixed and incubated at 37° C. for 2 hours in shaker incubator. Post incubation, the samples were neutralised by serial 1:10 dilution in D/E broth followed by saline dilutions. 100 μl of each dilution was plated on fresh RCM agar plates and allowed to dry. The plates were sealed with parafilm and incubated at 37° C. in anaerobic chamber for 4-5 days. Post incubation, colonies were counted and titer was estimated as log CFU/ml. The relative log reductions of individual and combination treatment were calculated with respect to control and the data is presented in the table below: […]

Regarding `Cc1ccc(C(C)C)c(O)c1` [Thymol, thymol], the Relative log reduction (Thymol 0.01%) is 0.33 and the Relative log reduction (Thymol 0.02%) came out at 2.02.

B1: Endolysin: recombinant P. acnes phage endolysin cloned from Propionibacterium phage 29399B_C, 284 amino acids, expressed in E. coli (protein)
chain: MRYIPAAHHSAGSNHPVNRVVIHATCPDVGFPSASRKGRAVSTANYFASPSSGGSAHYVCDIGETVQCLSEGTIGWHAPPNPHSLGIEICADGGSHASFRVPGHAYTREQWLDPRVWPAVEKAAILCRRLCDKYNVPKRKLSAADLKAGRRGVCGHVDVTDAWHQSDHDDPGPWFPWDRFMAVVNGHNESGELTVADVKALHDQIKQLSAQLAGSVNKLHHDVGVVQVQNGDLGKRVDALSWVKNPVTGKLWRTKDALWSVWYYVLECRSRIDRLESAVNGLKKLEHHHHHH
modifications: His6 tag; Polypeptide sequence of Endolysin with C-terminal Histidine tag (x6)
Turning to B1, for the setting “Endolysin 3 μM”, the Relative log reduction is reported as 1.17.
